In US20250242032A1, “AGGREGATE FORMED BY MEANS OF ASSEMBLING CHALCOGEN HETEROCYCLIC COMPOUND AND INSULIN, AND PREPARATION METHOD THEREFOR, AND INSULIN ORAL PREPARATION” (FUZHOU UNIVERSITY, priority 2021, published 2025):

What was measured:
diabetic model mice [1] = experiment: Blood glucose of diabetic model mice after oral administration of enteric-coated capsule loading lyophilized aggregate; type: in vivo, C57BL/6J mice
Protocol: (1) Streptozotocin (STZ) was intraperitoneally injected into 6-8 week-old C57BL/6J mice for five consecutive days to induce pancreatic islet B-cell damage. On the 17th day after the first injection, the blood glucose concentration of the mice was measured, and the diabetic mouse model was considered to be successfully established when the blood glucose concentration was higher than 300 mg/dL. (2) After the diabetic model mice were orally administered with a suspension of the above aggregate at an amount of insulin of 80 U/kg, blood was collected from the tail vein of the mice at different time points to monitor the change in blood glucose. In control experiment 1, an equal amount of free insulin was administered orally to the diabetic model mice. In control experiment 2, an equal volume of physiological saline was administered orally to the diabetic model mice. In control experiment 3, insulin was injected subcutaneously to the diabetic model mice at 5 U/kg. Change in blood glucose level of diabetic model mice after orally administered with an enteric-coated capsule loading the aggregate of insulin and chalcogen heterocyclic compound (1) The aggregate was prepared into a lyophilized powder and loaded in an enteric-coated capsule. In control experiment 1, an equal amount of free insulin was loaded in an enteric-coated capsule. (2) A diabetic mice model was established according to the method as above. The mice were administered with recombinant insulin at an amount of 20 U/kg, after which the blood was taken from the tail vein of the mice at different time points to monitor the change in blood glucose concentration. In control experiment 2, insulin was injected subcutaneously to the diabetic model mice at 5 U/kg.

diabetic model mice [2] = experiment: Blood glucose of diabetic model mice after oral administration of aggregate suspension; type: in vivo, C57BL/6J mice
Protocol: Change in blood glucose level of diabetic model mice after administered orally with the aggregate of insulin and chalcogen heterocyclic compound (1) Streptozotocin (STZ) was intraperitoneally injected into 6-8 week-old C57BL/6J mice for five consecutive days to induce pancreatic islet B-cell damage. On the 17th day after the first injection, the blood glucose concentration of the mice was measured, and the diabetic mouse model was considered to be successfully established when the blood glucose concentration was higher than 300 mg/dL. (2) After the diabetic model mice were orally administered with a suspension of the above aggregate at an amount of insulin of 80 U/kg, blood was collected from the tail vein of the mice at different time points to monitor the change in blood glucose. In control experiment 1, an equal amount of free insulin was administered orally to the diabetic model mice. In control experiment 2, an equal volume of physiological saline was administered orally to the diabetic model mice. In control experiment 3, insulin was injected subcutaneously to the diabetic model mice at 5 U/kg. Change in blood glucose level in diabetic model mice after administration of a suspension of the aggregate of insulin and chalcogen heterocyclic compound: The diabetic model mice were orally administered with a suspension of the aggregate 2 obtained above at an amount of insulin of 50 U/kg, and then the blood was collected from the tail vein of the mice at different time points to monitor the change in blood glucose concentration. In control experiment 1, an equal volume of physiological saline was administered orally to the diabetic model mice, and in control experiment 2, insulin was injected subcutaneously to the diabetic model mice at 5 U/kg. Change in blood glucose level in diabetic model mice after administration of a suspension of the aggregate of insulin and chalcogen heterocyclic compound: The diabetic model mice were orally administered with a suspension of the above aggregate 3 at an amount of insulin of 50 U/kg. […]

diabetic model pigs = experiment: Blood glucose of diabetic model pigs after oral administration of enteric-coated capsule loading lyophilized aggregate; type: in vivo, Bama mini-pigs; details: oral enteric-coated capsule loading free insulin, 20 U/kg
Protocol: Change in blood glucose level of diabetic model pigs after orally administered with an enteric-coated capsule loading the aggregate of insulin and chalcogen heterocyclic compound (1) Streptozotocin (STZ, with a concentration of 75 mg/mL) was infused intravenously to 4-month-old Bama mini-pigs at 150 mg/kg to induce pancreatic islet B-cell damage. On the 7th day after the first infusion, the blood glucose concentration of the pigs was measured, and the diabetic pig model was considered to be successfully established when the blood glucose concentration was higher than 300 mg/dL. (2) The aggregate was prepared into a lyophilized powder and loaded in an enteric-coated capsule. In control experiment 1, an equal amount of free insulin was loaded in an enteric-coated capsule. (3) The diabetic model pigs were administered with recombinant insulin at an amount of 20 U/kg, after which the blood was taken from the jugular vein of the pigs at different time points to monitor the change in blood glucose concentration. (4) The diabetic model pigs were given normal food at the 3rd and 8th hour after administration, and the food bowl was removed after 15 minutes.

Caco-2 cells = experiment: Trans-epithelial electrical resistance (TEER), integrity of epithelial cell layer; type: cell-based, human; details: Caco-2 monolayer, monitored for 12 hours
Protocol: Transcellular transport of the aggregate of insulin and chalcogen heterocyclic compound in intestinal model in vitro and integrity of epithelial cell layer
(1) Caco-2 cells were plated in a 24-well Transwell chamber and cultured for 21 days. […] (2) The aggregate was added to the upper Transwell chamber at 20 μg/mL, the concentration of insulin in the liquid in the lower Transwell chamber was detected every 1 hour, and the TEER was monitored continuously for 12 hours.

[3] = subcutaneous injection 5 U/kg, 15 minutes after injection
[4] = subcutaneous injection 5 U/kg, within 15-180 minutes

For “free insulin: human recombinant insulin, used unencapsulated as oral control or subcutaneous injection control”, which “reduction in blood glucose concentration” value (diabetic model mice [1]; oral enteric-coated capsule loading free insulin, 20 U/kg) is on record?
Its value is “little reduction”.

What about the “reduction in blood glucose” value (diabetic model mice [1]; [3]) of the same compound?
Its value is “significant reduction”.

What about the “reduction of blood glucose concentration” value (diabetic model mice [1]; [4]) of the same compound?
Its value is 30-50%.

What about the “reduction in blood glucose concentration” value (diabetic model mice [2]; oral, equal amount of free insulin (80 U/kg)) of the same compound?
Its value is “little reduction”.

And the “reduction in blood glucose concentration” value (diabetic model mice [2]; [3])?
Its value is “significant reduction”.

And the “reduction of blood glucose concentration” value (diabetic model mice [2]; [4])?
The value was 30-50%.

And the “reduction in blood glucose concentration” value (diabetic model pigs)?
Its value is “little reduction”.

Which “change in TEER” value (Caco-2 cells) does the source give for CCCCCCCCCC(=O)[O-].[Na+] [sodium caprate] here?
Its value is “drastically reduced”.
